Experimental findings from US7803801B2, “Aminopyridine compounds having Syk inhibitory activity” (Japan Tobacco, Inc., priority 2005, dated 2010) are described below.

Assay [1] has as its target GST-Syk Full Protein (human) (Homo sapiens, UniProt P43405). Nature of the assay: Syk kinase inhibition test (HTRF method). Type of assay: biochemical. The conditions noted are these: HTRF, 100 μM ATP, 30 min room temperature, average; read-out: sykHTRF ave IC50. An outline of the steps:
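HTRF read-out: after EDTA termination and 1 h with XL665-streptavidin and Eu-anti-phosphotyrosine, the 665/620 nm ratio was measured. The reaction ran 30 min at 20–25 °C with final 6.4 nM human GST-Syk, 250 nM biotinylated peptide, 100 μM ATP, pH 7.0 HEPES buffer, 2% DMSO.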
In general terms: In TR-FRET formats the signal depends on donor and acceptor labels being close together.

Assay [2] deals with cultured human mast cells. Description: Degranulation inhibition test using cultured human mast cells (IgE cross-linking, β-Hexosaminidase release). It counts as cell-based. The conditions noted are these: cultured human mast cells, anti-hIgE stimulation, β-Hexosaminidase index, average, read-out: human degranulation ave. IC50. An outline of the steps:
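Degranulation was triggered by anti-hIgE (10 μg/mL final, 30 min, 37 °C) after a 10-min compound pretreatment (DMSO 0.1%) of cord-blood CD34+-derived mast cells primed 5 days with IL-4 and IgE. β-Hexosaminidase in supernatant was measured with p-nitrophenyl-GlcNAc substrate (A405), expressed against water-lysed total; IC50 (M).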

pIC50: −log10 of the molar value. Where two headings read alike, the source gives them in different places.

Take `Cc1ccnc(Nc2cccc(-c3cnc(CCNS(C)(=O)=O)s3)n2)c1` [Compound A-261]: the negative-log IC50 (pIC50) in assay [1] and in assay [2] (Mast cell) was 6.00 to 7.00 each time.

In the case of `Cc1ccnc(Nc2cccc(-c3cnc(CNc4ccc(CC(=O)O)cc4)s3)n2)c1` [Compound A-262], the pIC50 in assay [1] was 6.00 to 7.00; in assay [2] (Mast cell), under 6.00.

In the case of `Cc1ccnc(Nc2cccc(-c3cnc(CCC4CCN(C(=O)CO)CC4)s3)n2)c1` [Compound A-263, 2-hydroxy-1-[4-(2-{5-[6-(4-methylpyridin-2-ylamino)pyridin-2-yl]thiazol-2-yl}ethyl)piperidin-1-yl]ethanone], the pIC50 was over 7.00 in assay [1] and 6.00 to 7.00 in assay [2] (Mast cell).

Regarding `Cc1ccnc(Nc2cccc(-c3cnc([C@H]4CC[C@H](C(=O)N(C)C)CC4)s3)n2)c1` [Compound A-264], the pIC50 in assay [1] and in assay [2] (Mast cell) was 6.00 to 7.00 in each case.

`CON(C)C(=O)[C@H]1CC[C@H](c2ncc(-c3cccc(Nc4cc(C)ccn4)n3)s2)CC1` [Compound A-265]: the negative logarithm of the IC50 (pIC50) in assay [1] and in assay [2] (Mast cell) was 6.00 to 7.00 in each case.

For the compound `Cc1ccnc(Nc2cccc(-c3cnc(C4CCN(C(=O)NCCO)CC4)s3)n2)c1` [Compound A-266], the pIC50 in assay [1] and in assay [2] (Mast cell) was 6.00 to 7.00 in each case.

Consider `Cc1ccnc(Nc2cccc(-c3cnc([C@H]4CC[C@H](C(=O)NCCO)CC4)s3)n2)c1` [Compound A-267, N-(2-hydroxyethyl)-trans-4-{5-[6-(4-methylpyridin-2-ylamino)pyridin-2-yl]thiazol-2-yl}cyclohexanecarboxamide], for which the pIC50 in assay [1] is over 7.00; in assay [2] (Mast cell), 6.00 to 7.00.

Consider `Cc1ccnc(Nc2cccc(-c3cnc([C@H]4CC[C@H](C(=O)NCCN5CCOCC5)CC4)s3)n2)c1` [Compound A-268, N-(2-morpholin-4-ylethyl)-trans-4-{5-[6-(4-methylpyridin-2-ylamino)pyridin-2-yl]thiazol-2-yl}cyclohexanecarboxamide], for which the negative logarithm of the IC50 (pIC50) in assay [1] was over 7.00; in assay [2] (Mast cell), 6.00 to 7.00.

For the compound `Cc1ccnc(Nc2cccc(-c3cnc(CC4CCC(C(=O)N5CCC(O)CC5)CC4)s3)n2)c1` (stereo not drawn) [Compound A-269], the negative logarithm of the IC50 (pIC50) in assay [1] and in assay [2] (Mast cell) was 6.00 to 7.00 in each case.

As to `Cc1ccnc(Nc2cccc(-c3cnc(C4CCCC(C(=O)O)C4)s3)n2)c1` (stereo not drawn) [Compound A-270], the pIC50 in assay [1] is 6.00 to 7.00; in assay [2] (Mast cell), under 6.00.

Consider `Cc1ccnc(Nc2cccc(-c3cnc(C4CCCC(C(=O)N5CCC(O)CC5)C4)s3)n2)c1` (stereo not drawn) [Compound A-271], for which the negative-log IC50 (pIC50) in assay [1] and in assay [2] was 6.00 to 7.00 each time.

In the case of `Cc1ccnc(Nc2cccc(-c3cnc(C4CCCC(C(=O)N5CCC(O)CC5)C4)s3)n2)c1` (stereo not drawn) [Compound A-272], the negative logarithm of the IC50 (pIC50) in assay [1] and in assay [2] (Mast cell) was 6.00 to 7.00 in each case.

For `Cc1ccnc(Nc2cccc(-c3cnc(C4CCCC(C(=O)N5C[C@@H](O)[C@@H](O)C5)C4)s3)n2)c1` (stereo partly drawn) [Compound A-273], the pIC50 is 6.00 to 7.00 in assay [1] and under 6.00 in assay [2] (Mast cell).

On to `Cc1ccnc(Nc2cccc(-c3cnc([C@H]4CC[C@H](C(=O)N5CCCCC5)CC4)s3)n2)c1` [Compound A-274], for which the figures for the pIC50 in assay [1] and in assay [2] (Mast cell) were 6.00 to 7.00 and under 6.00, respectively.

With `Cc1ccnc(Nc2cccc(-c3cnc([C@H]4CC[C@H](C(=O)N5CCOCC5)CC4)s3)n2)c1` [Compound A-275], the negative logarithm of the IC50 (pIC50) in assay [1] and in assay [2] (Mast cell) was 6.00 to 7.00 throughout.

In the case of `Cc1ccnc(Nc2cccc(-c3cnc(CCc4cccc(C(=O)O)c4)s3)n2)c1` [Compound A-276], the negative logarithm of the IC50 (pIC50) is 6.00 to 7.00 in assay [1] and under 6.00 in assay [2] (Mast cell).

`Cc1ccnc(Nc2cccc(-c3cnc(CCc4cccc(CO)c4)s3)n2)c1` [Compound A-277, [3-(2-{5-[6-(4-methylpyridin-2-ylamino)pyridin-2-yl]thiazol-2-yl}ethyl)phenyl]methanol]: the negative logarithm of the IC50 (pIC50) was over 7.00 in assay [1] and 6.00 to 7.00 in assay [2] (Mast cell).

Turning to `Cc1ccnc(Nc2cccc(-c3cnc(CNc4ccc(CC(=O)N5CCC(O)CC5)cc4)s3)n2)c1` [Compound A-278], the negative-log IC50 (pIC50) is 6.00 to 7.00 in assay [1] and under 6.00 in assay [2] (Mast cell).

Take `Cc1ccnc(Nc2cccc(-c3cnc([C@H]4CC[C@H](C(=O)NCCc5ccccn5)CC4)s3)n2)c1` [Compound A-279]: the negative-log IC50 (pIC50) in assay [1] and in assay [2] (Mast cell) was 6.00 to 7.00 each time.

For `COC1CCN(C(=O)[C@H]2CC[C@H](c3ncc(-c4cccc(Nc5cc(C)ccn5)n4)s3)CC2)CC1` [Compound A-280], the negative-log IC50 (pIC50) in assay [1] and in assay [2] (Mast cell) was 6.00 to 7.00 each time.

Take `Cc1ccnc(Nc2cccc(-c3cnc([C@H]4CC[C@H](C(=O)N5CCC(O)C5)CC4)s3)n2)c1` (stereo partly drawn) [Compound A-282, (3-hydroxypyrrolidin-1-yl)-(trans-4-{5-[6-(4-methylpyridin-2-ylamino)pyridin-2-yl]thiazol-2-yl}cyclohexyl)methanone]: the values for the pIC50 in assay [1] and in assay [2] (Mast cell) were over 7.00 and 6.00 to 7.00, respectively.

As for `Cc1ccnc(Nc2cccc(-c3cnc([C@H]4CC[C@H](C(=O)N5CCNC(=O)C5)CC4)s3)n2)c1` [Compound A-283, 4-(trans-4-{5-[6-(4-methylpyridin-2-ylamino)pyridin-2-yl]thiazol-2-yl}cyclohexanecarbonyl)piperazin-2-one], the pIC50 in assay [1] is over 7.00; in assay [2] (Mast cell), under 6.00.

Regarding `CC(=O)NC1CCN(C(=O)[C@H]2CC[C@H](c3ncc(-c4cccc(Nc5cc(C)ccn5)n4)s3)CC2)C1` (stereo partly drawn) [Compound A-284], the pIC50 in assay [1] and in assay [2] (Mast cell) was 6.00 to 7.00 throughout.

Turning to `Cc1ccnc(Nc2cccc(-c3cnc([C@H]4CC[C@H](C(=O)N5CCC[C@H]5CO)CC4)s3)n2)c1` [Compound A-285], the negative logarithm of the IC50 (pIC50) in assay [1] and in assay [2] (Mast cell) was 6.00 to 7.00 each time.

Consider `Cc1ccnc(Nc2cccc(-c3cnc([C@H]4CC[C@H](C(=O)N5CCC[C@@H]5CO)CC4)s3)n2)c1` [Compound A-286, ((R)-2-hydroxymethylpyrrolidin-1-yl)-(trans-4-{5-[6-(4-methylpyridin-2-ylamino)pyridin-2-yl]thiazol-2-yl}cyclohexyl)metanone], for which the pIC50 in assay [1] was over 7.00; in assay [2] (Mast cell), 6.00 to 7.00.

Regarding `Cc1ccnc(Nc2cccc(-c3cnc([C@H]4CC[C@H](C(=O)N5CCC(N(C)C)C5)CC4)s3)n2)c1` (stereo partly drawn) [Compound A-287], the pIC50 in assay [1] and in assay [2] (Mast cell) was 6.00 to 7.00 each time.

Turning to `Cc1ccnc(Nc2cccc(-c3cnc(CNCc4ccc(C(=O)O)cc4)s3)n2)c1` [Compound A-288], the negative logarithm of the IC50 (pIC50) was 6.00 to 7.00 in assay [1] and under 6.00 in assay [2] (Mast cell).

Regarding `CC(=O)N1CCN(C(=O)[C@H]2CC[C@H](c3ncc(-c4cccc(Nc5cc(C)ccn5)n4)s3)CC2)CC1` [Compound A-289], the figures for the pIC50 in assay [1] and in assay [2] (Mast cell) were 6.00 to 7.00 and under 6.00, respectively.

On to `Cc1ccnc(Nc2cccc(-c3cnc([C@H]4CC[C@H](C(=O)N5CCC(N)CC5)CC4)s3)n2)c1` [Compound A-290, (4-aminopiperidin-1-yl)-(trans-4-{5-[6-(4-methylpyridin-2-ylamino)pyridin-2-yl]thiazol-2-yl}cyclohexyl)methanone], for which the pIC50 in assay [1] is over 7.00; in assay [2] (Mast cell), under 6.00.

As for `COc1ccnc(Nc2cccc(-c3cnc([C@H]4CC[C@H](C(=O)N5CCC(O)CC5)CC4)s3)n2)c1` [Compound A-291], the negative-log IC50 (pIC50) in assay [1] and in assay [2] (Mast cell) was 6.00 to 7.00 in each case.

On to `Cc1ccnc(Nc2cccc(-c3cnc(C4CCN(C(=O)C5CCNCC5)CC4)s3)n2)c1` [Compound A-292], for which the values for the pIC50 in assay [1] and in assay [2] (Mast cell) were 6.00 to 7.00 and under 6.00, respectively.

Regarding `Cc1ccnc(Nc2cccc(-c3cnc(CCC4CCN(C(=O)C5CCC(=O)CC5)CC4)s3)n2)c1` [Compound A-293], the values for the negative logarithm of the IC50 (pIC50) in assay [1] and in assay [2] (Mast cell) were 6.00 to 7.00 and under 6.00, respectively.

`Cc1ccnc(Nc2cccc(-c3cnc(CCC4CCN(C(=O)C5CCC(O)CC5)CC4)s3)n2)c1` (stereo not drawn) [Compound A-294]: the negative logarithm of the IC50 (pIC50) is 6.00 to 7.00 in assay [1] and under 6.00 in assay [2] (Mast cell).

In the case of `Cc1ccnc(Nc2cccc(-c3cnc(CCC4CCN(C(=O)C5CCNCC5)CC4)s3)n2)c1` [Compound A-295, [4-(2-{5-[6-(4-methylpyridin-2-ylamino)pyridin-2-yl]thiazol-2-yl}ethyl)piperidin-1-yl]-(piperidin-4-yl)metanone], the figures for the pIC50 in assay [1] and in assay [2] (Mast cell) were over 7.00 and under 6.00, respectively.

With `Cc1ccnc(Nc2cccc(-c3cnc([C@H]4CC[C@H](CN5CCC(O)CC5)CC4)s3)n2)c1` [Compound A-296], the pIC50 in assay [1] was 6.00 to 7.00; in assay [2] (Mast cell) it was under 6.00.

On to `O=C([C@H]1CC[C@H](c2ncc(-c3cccc(Nc4cc(Cl)ccn4)n3)s2)CC1)N1CCC(O)CC1` [Compound A-297, (trans-4-{5-[6-(4-chloropyridin-2-ylamino)pyridin-2-yl]thiazol-2-yl}cyclohexyl)-(4-hydroxypiperidin-1-yl)metanone], for which the values for the pIC50 in assay [1] and in assay [2] (Mast cell) were over 7.00 and 6.00 to 7.00, respectively.

`Cc1ccnc(Nc2cccc(-c3cnc([C@H]4CC[C@H](C(=O)NN5CCC(O)CC5)CC4)s3)n2)c1` [Compound A-298, N-(4-hydroxypiperidin-1-yl)-trans-4-{5-[6-(4-methylpyridin-2-ylamino)pyridin-2-yl]thiazol-2-yl}cyclohexanecarboxamide]: the figures for the negative-log IC50 (pIC50) in assay [1] and in assay [2] (Mast cell) were over 7.00 and 6.00 to 7.00, respectively.

As to `Cc1ccnc(Nc2cccc(-c3cnc([C@H]4CC[C@H](C(=O)N5CCN(C)CC5)CC4)s3)n2)c1` [Compound A-300], the pIC50 in assay [1] and in assay [2] (Mast cell) was 6.00 to 7.00 throughout.

Regarding `Cc1ccnc(Nc2cccc(-c3cnc(CCC4CCN(C(=O)c5ccncc5)CC4)s3)n2)c1` [Compound A-301], the negative-log IC50 (pIC50) in assay [1] and in assay [2] (Mast cell) was 6.00 to 7.00 each time.

A word on the pIC50: it is the IC50 on a negative log10 scale, so that one unit is a factor of ten.
